Patent publication US20260041093A1, “Ionic Derivatives Of Aromatic Carboxylic Acid For Use As Plant Stimulants, Method For Stimulating Plants And Use Of These Derivatives For Manufacturing Compositions For Stimulating Plants” (FUNDACJA UNIWERSYTETU IM. ADAMA MICKIEWICZA W POZNANIU, priority 2022, published 2026)
Where two headings read alike, the source gives them in different places.

Columns and labels:
Brome Mosaic Virus (BMV) = test: Protection of barley against Brome Mosaic Virus infection by watering (Examples 28 and 29); type: in vivo; settings: 80 mg/L, watered twice; 2 weeks after infection
powdery mildew fungus = type: in vivo, tomato; settings: 80 mg/L, watered twice; 2 weeks after infection
Method: Tomato plants, at the stage of the first pair of developed true leaves, were watered twice with a solution of substance 1-32 at a concentration of 80 mg/L, at a weekly interval. The control was tomato plants watered only with water. […] The suspension was prepared from culture on solid medium. Protection against biotic stress was evaluated by comparing the area of leaves affected by infection.

[1] = tested on: Pseudomonas syringae pv. Tomato (Pst); settings: watered twice, Pst 10^5, 2 weeks after infection
Method: Tobacco plants at the stage of 3 developed leaves were watered twice, at a weekly interval, with a solution of test substances 1-11 at concentrations of 10, 40, 80 mg/L. The control was tobacco plants watered with water only. One week after the second treatment, a suspension of Pst bacteria at a concentration of 10^5 was spotted into the leaves using an insulin syringe (without a needle). The suspension was prepared from a two-day culture of Pst on solid medium. Protection against biotic stress was evaluated by the proliferation of bacteria in the leaves at the insertion site and the formation of a necrotic spot, compared to the control.
We proceeded as in Example 30, with the effectiveness of protection against biotic stress tested against bacterial cell concentrations raised to about 10^6.

Compound	% reduction in necrotic spots compared to control (Brome Mosaic Virus (BMV)) [%]	% reduction in necrotic spots compared to control (powdery mildew fungus) [%]	% reduction in necrotic spots compared to control ([1]; 10 mg/L) [%]	% reduction in necrotic spots compared to control ([1]; 40 mg/L) [%]	% reduction in necrotic spots compared to control ([1]; 80 mg/L) [%]
C[N+](C)(C)CCO.O=C([O-])c1cc(Br)cc(Br)c1O	38	72			
C[N+](C)(C)CCO.O=C([O-])c1cc(F)cc(F)c1O	27	70			
C[N+](C)(C)CCO.O=C([O-])c1cc(I)cc(I)c1O	46	78			
2-bromoethyl(trimethyl)ammonium 3-chlorosalicylate	95	54			
2-chloroethyl(trimethyl)ammonium 3-chlorosalicylate	36	57			
2-fluoroethyl(trimethyl)ammonium 3-chlorosalicylate	56	36			
2-iodoethyl(trimethyl)ammonium 3-chlorosalicylate	64	47			
CC(=O)Oc1c(Cl)cccc1C(=O)[O-].C[N+](C)(C)CCO [choline 2-acetoxy-3-chlorobenzoate]		45	>10	28	35
CC(=O)Oc1ccccc1C(=O)[O-].C[N+](C)(C)CCO [choline 2-acetoxybenzoate]		52	25	29	69
CCOc1c(Cl)cccc1C(=O)[O-].C[N+](C)(C)CCO [choline 2-ethoxy-3-chlorobenzoate]		43	24	33	39
CCOc1ccccc1C(=O)[O-].C[N+](C)(C)CCO [choline 2-ethoxybenzoate]		43	56	60	82
COc1c(Cl)cccc1C(=O)[O-].C[N+](C)(C)CCO [choline 2-methoxy-3-chlorobenzoate]		49	>10	25	39
COc1ccccc1C(=O)[O-].C[N+](C)(C)CCO [choline 2-methoxybenzoate]		44	54	68	67
C[N+](C)(C)CCO.O=C([O-])c1cccc(Br)c1O [choline 3-bromosalicylate]	21	72			
C[N+](C)(C)CCO.O=C([O-])c1cccc(F)c1O [choline 3-fluorosalicylate]	56	52			
C[N+](C)(C)CCO.O=C([O-])c1cccc(I)c1O [choline 3-iodosalicylate]	77	69			
C[N+](C)(C)CCO.O=C([O-])c1cc(Br)ccc1O [choline 5-bromosalicylate]	69	79			
C[N+](C)(C)CCO.O=C([O-])c1cc(F)ccc1O [choline 5-fluorosalicylate]	88	54			
C[N+](C)(C)CCO.O=C([O-])c1cc(I)ccc1O [choline 5-iodosalicylate]	35	65			
